System: German cockroaches
Assay: Second series of evaluations: pyriproxyfen and novaluron alone and in combination on three substrates
Format: in vivo
Settings: preliminary results
Description: Ceramic tile, vinyl tile, and unpainted plywood panels measuring 6″×6″ were cleaned using soapy water to remove any residue left over from the manufacturing process and left to dry overnight. Six (6) L plastic storage boxes (Sterlite®) with lids were purchased from a local hardware store (Home Depot, Riverbank, Calif.) and cleaned as well and allowed to dry. Each substrate was treated with 0.95 mL of test material (1 gallon/1,000 ft^2 equivalent) prepared in accordance with Example 1 using a Pipetteman 1000, with the material being evenly distributed over the entire surface of the substrate using an acid brush. The material was allowed to dry and the substrates were placed into the plastic storage boxes, one per box. A 5 cm Petri dish was filled with dog food and a slice of orange for nourishment, and a water tube was added for moisture. The food dish was placed directly on the treated substrate to force exposure of the cockroaches. A 6″ rolled piece of corrugated cardboard was placed in each replicate for harborage. A thin layer of petroleum jelly/mineral oil was applied to the rim to prevent escape.
Approximately forty (40) second and third instar nymphs were placed in each replicate and the lid was placed on top. Five replicates were prepared, one for each of the four treatments set forth in Table 2 and an untreated control. […]

Row | SMILES | Molting abnormalities of mid-instar cockroaches (all three substrates) | Morphological characteristics of juvenoid activity (individuals alive in these treatment groups)
1 | O=C(NC(=O)c1c(F)cccc1F)Nc1ccc(OC(F)(F)C(F)OC(F)(F)F)c(Cl)c1 (racemic) [novaluron, (RS)-1-[3-chloro-4-(1,1,2-trifluoro-2-trifluoromethoxyethoxy)phenyl]-3-(2,6-difluorobenzoyl)urea] | molting abnormalities | –
2 | CC(COc1ccc(Oc2ccccc2)cc1)Oc1ccccn1 (centres unmarked) [pyriproxyfen, 4-phenoxyphenyl 2-(2-pyridyloxy)propyl ether] | – | twisted wings and darkened cuticle
